Source: ChEMBL document CHEMBL4431321, “Profiling of Flavonol Derivatives for the Development of Antitrypanosomatidic Drugs” (J Med Chem, 2016)
Activity calls are given as the source filed them. The calls are words filed in the database; no cut-off is given here.

Experiments:
Leishmania infantum [1] = experiment: Antiparasitic activity against Leishmania infantum MOM/MA67ITMAP263 amastigotes infected in human THP1 cell after 72 hrs by steady-glo luminescence assay; type: functional, organism-based; conditions: MOM/MA67ITMAP263, THP-1, 72 h
[2] = target: Aurora kinase B (Homo sapiens) (UniProt Q96GD4); experiment: Inhibition of recombinant full-length human aurora B kinase expressed in baculovirus system using MBP as substrate at 10 uM incubated for 45 mins by ADP-glo kinase assay
Trypanosoma brucei [3] = experiment: Inhibition of Trypanosoma brucei PTR1 at 50 uM using H2B as substrate incubated for 10 mins followed by addition of NADPH measured for 10 to 50 mins
Leishmania mexicana [4] = experiment: Inhibition of Leishmania mexicana DHFR at 50 uM using folic aid as substrate by spectrophotometric analysis
Trypanosoma brucei [5] = experiment: Inhibition of Trypanosoma brucei DHFR at 50 uM using folic aid as substrate by spectrophotometric analysis
[6] = target: T1, Dihydrofolate reductase (Homo sapiens) (UniProt P00374); experiment: Inhibition of human DHFR at 50 uM using folic aid as substrate by spectrophotometric analysis
T1 sequence (whole entry): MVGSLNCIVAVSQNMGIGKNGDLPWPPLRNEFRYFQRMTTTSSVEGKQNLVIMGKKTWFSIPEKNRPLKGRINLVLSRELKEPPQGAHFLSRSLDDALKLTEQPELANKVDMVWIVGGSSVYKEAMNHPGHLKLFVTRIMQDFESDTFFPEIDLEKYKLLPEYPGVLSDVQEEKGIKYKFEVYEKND

786-0 = experiment: Mitochondrial toxicity in human 786-O cells incubated for 6 hrs by mitotracker red staining based-uptake method; type: cell-based; conditions: 786-0, 6 h
[7] = target: Thymidylate synthase (Homo sapiens) (UniProt P04818); experiment: Inhibition of human thymidylate synthase at 50 uM using folic aid as substrate by spectrophotometric analysis
A549 = experiment: Cytotoxicity against human A549 cells at 100 uM after 48 hrs by cell titer glo assay; type: cell-based; conditions: a549, 48 h
WI-38 = experiment: Cytotoxicity against human WI38 cells at 100 uM after 48 hrs by cell titer glo assay; type: cell-based; conditions: wi-38, 48 h
[8] = system: Trypanosoma brucei brucei; experiment: Antitrypanosomal activity against Trypanosoma brucei brucei Lister 427 bloodstream forms assessed as synergy coefficient at 1.25 to 5 uM after 72 hrs in presence of MTX by resazurin-based assay; type: functional
[9] = system: Trypanosoma brucei brucei; experiment: Antitrypanosomal activity against Trypanosoma brucei brucei Lister 427 bloodstream forms after 72 hrs by resazurin-based assay; type: functional, organism-based; conditions: Lister 427, 72 h
Cytochrome P450 1A2 [10] = target: T2, Cytochrome P450 1A2 (Homo sapiens, UniProt P05177); experiment: (§1) Inhibition of human microsomal CYP1A2 expressed in baculovirus infected BTI-TN-5B1-4 cells at 10 uM incubated for 30 mins by luciferase assay; type: ADME; conditions: bti-tn-5b1-4, 0.5 h, 10 µM
T2 sequence (P05177 whole entry): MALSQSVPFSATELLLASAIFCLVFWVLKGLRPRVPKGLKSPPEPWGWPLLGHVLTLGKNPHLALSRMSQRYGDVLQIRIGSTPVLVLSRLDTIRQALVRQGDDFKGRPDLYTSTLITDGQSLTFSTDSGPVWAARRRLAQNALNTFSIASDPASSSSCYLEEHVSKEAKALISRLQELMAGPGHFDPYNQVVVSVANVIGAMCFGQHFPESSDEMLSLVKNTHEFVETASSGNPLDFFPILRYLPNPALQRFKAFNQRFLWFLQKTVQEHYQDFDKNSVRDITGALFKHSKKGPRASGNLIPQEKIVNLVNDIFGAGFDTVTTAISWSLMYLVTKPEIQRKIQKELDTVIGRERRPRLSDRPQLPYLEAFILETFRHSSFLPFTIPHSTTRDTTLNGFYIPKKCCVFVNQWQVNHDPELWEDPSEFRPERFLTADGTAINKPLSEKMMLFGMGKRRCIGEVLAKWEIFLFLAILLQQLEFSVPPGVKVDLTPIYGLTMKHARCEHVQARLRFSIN

[11] = system: Trypanosoma brucei brucei; experiment: Antitrypanosomal activity against Trypanosoma brucei brucei Lister 427 bloodstream forms at 10 uM after 72 hrs by resazurin-based assay; type: functional, organism-based
[12] = system: Trypanosoma brucei brucei; experiment: Antitrypanosomal activity against Trypanosoma brucei brucei Lister 427 bloodstream forms assessed as synergy coefficient at 2.5 to 5 uM after 72 hrs in presence of MTX by resazurin-based assay; type: functional
[13] = Cytotoxicity against human THP1 cells after 72 hrs by MTT assay; type: cell-based; conditions: THP-1 cells; for MNTC at 72 h: read-out: NOAEL
in vitro = conditions: human, THP-1 cells
Description: Selectivity index, ratio of CC50 for human THP1 cells to EC50 for Trypanosoma brucei brucei Lister 427 bloodstream forms

Trypanosoma brucei [14] = experiment: (§2) Inhibition of Trypanosoma brucei PTR1 using H2B as substrate incubated for 10 mins followed by addition of NADPH measured for 10 to 50 mins
[15] = system: Trypanosoma brucei brucei; experiment: Antitrypanosomal activity against Trypanosoma brucei brucei Lister 427 bloodstream forms assessed as maximum synergy coefficient at 1.25 after 72 hrs in presence of MTX by resazurin-based assay; type: functional
THP-1 = experiment: Cytotoxicity against human THP1 cells at 12.5 to 50 uM after in presence of MTX by MTT assay; type: cell-based; conditions: thp-1, 50 µM
CYP1A2 = CYP1A2 (Homo sapiens, UniProt P05177); experiment: as §1; type: ADME
Leishmania mexicana [16] = experiment: Inhibition of Leishmania mexicana PTR1 at 50 uM using H2B as substrate incubated for 10 mins followed by addition of NADPH measured for 10 to 50 mins
Cytochrome P450 1A2 [17] = target: T2, Cytochrome P450 1A2; experiment: Inhibition of human microsomal CYP1A2 expressed in baculovirus infected BTI-TN-5B1-4 cells incubated for 30 mins by luciferase assay; type: ADME
[18] = Half life BALB/c mouse blood at 1 mg/kg, iv administered as single dose by HPLC analysis; type: ADME, organism-based
[19] = Drug uptake in BALB/c mouse blood at 1 mg/kg, iv administered as single dose after 30 mins by HPLC analysis; type: ADME, organism-based; conditions: in vivo, 0.5 h
[20] = as §2
[21] = Cytotoxicity against human THP1 cells compound treated with cyclodextrins after 72 hrs by MTT assay; type: cell-based; conditions: THP-1 cells, read-out: NOAEL
Cytochrome P450 2C9 = Cytochrome P450 2C9 (Homo sapiens, UniProt P11712); experiment: Inhibition of human microsomal CYP2C9 expressed in baculovirus infected BTI-TN-5B1-4 cells incubated for 30 mins by luciferase assay; type: ADME
Cytochrome P450 2D6 = Cytochrome P450 2D6 (Homo sapiens, UniProt P10635); experiment: Inhibition of human microsomal CYP2D6 expressed in baculovirus infected BTI-TN-5B1-4 cells incubated for 30 mins by luciferase assay; type: ADME
[22] = system: Trypanosoma brucei brucei; experiment: Antitrypanosomal activity against Trypanosoma brucei brucei Lister 427 bloodstream forms compound treated with cyclodextrins after 72 hrs by resazurin-based assay; type: functional, organism-based; conditions: Lister 427, 72 h
Cytochrome P450 3A4 = Cytochrome P450 3A4 (Homo sapiens, UniProt P08684); experiment: Inhibition of human microsomal CYP3A4 expressed in baculovirus infected BTI-TN-5B1-4 cells incubated for 30 mins by luciferase assay; type: ADME
[23] = target: Voltage-gated inwardly rectifying potassium channel KCNH2 (Homo sapiens, UniProt Q12809); experiment: Inhibition of human ERG in membranes incubated for 2 hrs by fluorescence polarization assay
[24] = Cytotoxicity against human THP1 cells compound treated through encapsulation in PLGA nanoparticles after 72 hrs by MTT assay; type: cell-based; conditions: THP-1 cells, read-out: NOAEL
Cytochrome P450 2C19 = Cytochrome P450 2C19 (Homo sapiens, UniProt P33261); experiment: Inhibition of human microsomal CYP2C19 expressed in baculovirus infected BTI-TN-5B1-4 cells incubated for 30 mins by luciferase assay; type: ADME
[25] = Drug uptake in NMRI mouse plasma at 4 mg/kg, po administered with cyclodextrins by HPLC analysis; type: ADME, organism-based; conditions: in vivo
[26] = system: Trypanosoma brucei brucei; experiment: Antitrypanosomal activity against Trypanosoma brucei brucei Lister 427 bloodstream forms compound treated through encapsulation in PLGA nanoparticles after 72 hrs by resazurin-based assay; type: functional, organism-based; conditions: Lister 427, 72 h
[27] = Solubility of compound in PBS incubated for 18 hrs by UV-visible spectroscopic analysis; type: physicochemical; conditions: buffer
Dihydrofolate reductase = Dihydrofolate reductase (Homo sapiens, UniProt P00374); experiment: Inhibition of human DHFR using folic aid as substrate by spectrophotometric analysis
[28] = Drug uptake in BALB/c mouse plasma at 1 mg/kg, po administered as single dose through encapsulation in PLGA nanoparticles by HPLC analysis; type: ADME, organism-based; conditions: in vivo
[29] = Drug uptake in BALB/c mouse plasma at 1 mg/kg, iv administered as single dose through encapsulation in PLGA nanoparticles by HPLC analysis; type: ADME, organism-based; conditions: in vivo
Leishmania infantum [30] = experiment: Antiparasitic activity against Leishmania infantum MOM/MA67ITMAP263 amastigotes infected in human THP1 cells at 10 uM after 72 hrs by steady-glo luminescence assay; type: functional
Trypanosoma cruzi = experiment: Antitrypanosomal activity against Trypanosoma cruzi Y trypomastigotes infected in human HG39 cells after 48 hrs by RT-PCR assay

Thymidylate synthase (Homo sapiens), sequence (P04818 2-313 limits assumed): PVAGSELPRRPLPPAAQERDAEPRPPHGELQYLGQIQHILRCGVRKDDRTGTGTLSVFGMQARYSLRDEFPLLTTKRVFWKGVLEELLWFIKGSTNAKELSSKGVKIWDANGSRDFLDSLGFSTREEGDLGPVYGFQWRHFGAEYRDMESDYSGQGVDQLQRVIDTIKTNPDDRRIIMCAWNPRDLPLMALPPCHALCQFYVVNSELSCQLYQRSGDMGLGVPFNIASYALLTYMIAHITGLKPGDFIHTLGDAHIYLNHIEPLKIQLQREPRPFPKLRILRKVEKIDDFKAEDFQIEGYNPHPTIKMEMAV
Aurora kinase B (Homo sapiens), sequence (Q96GD4 whole entry): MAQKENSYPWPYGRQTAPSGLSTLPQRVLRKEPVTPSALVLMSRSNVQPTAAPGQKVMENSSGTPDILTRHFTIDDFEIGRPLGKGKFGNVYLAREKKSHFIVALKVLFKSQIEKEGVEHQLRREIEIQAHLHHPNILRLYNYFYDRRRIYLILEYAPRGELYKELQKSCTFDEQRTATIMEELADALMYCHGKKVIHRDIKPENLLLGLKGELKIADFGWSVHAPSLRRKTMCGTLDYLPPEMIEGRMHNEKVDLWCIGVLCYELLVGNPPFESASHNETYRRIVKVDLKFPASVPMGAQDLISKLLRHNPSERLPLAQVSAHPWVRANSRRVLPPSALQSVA
Cytochrome P450 3A4, sequence (P08684 whole entry): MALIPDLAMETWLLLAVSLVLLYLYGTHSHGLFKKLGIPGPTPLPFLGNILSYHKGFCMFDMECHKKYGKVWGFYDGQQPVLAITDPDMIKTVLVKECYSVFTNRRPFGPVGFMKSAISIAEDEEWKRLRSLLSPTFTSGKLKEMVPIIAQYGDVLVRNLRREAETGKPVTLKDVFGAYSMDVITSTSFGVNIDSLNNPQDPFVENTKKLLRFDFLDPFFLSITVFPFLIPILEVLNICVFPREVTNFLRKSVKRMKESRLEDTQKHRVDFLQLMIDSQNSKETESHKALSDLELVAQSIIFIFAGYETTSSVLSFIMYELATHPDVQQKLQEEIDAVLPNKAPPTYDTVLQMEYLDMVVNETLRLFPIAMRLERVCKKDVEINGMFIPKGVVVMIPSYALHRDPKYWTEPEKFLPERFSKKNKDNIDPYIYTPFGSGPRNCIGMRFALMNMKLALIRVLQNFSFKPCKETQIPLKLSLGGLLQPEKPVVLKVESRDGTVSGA
Cytochrome P450 2C9, sequence (P11712 whole entry): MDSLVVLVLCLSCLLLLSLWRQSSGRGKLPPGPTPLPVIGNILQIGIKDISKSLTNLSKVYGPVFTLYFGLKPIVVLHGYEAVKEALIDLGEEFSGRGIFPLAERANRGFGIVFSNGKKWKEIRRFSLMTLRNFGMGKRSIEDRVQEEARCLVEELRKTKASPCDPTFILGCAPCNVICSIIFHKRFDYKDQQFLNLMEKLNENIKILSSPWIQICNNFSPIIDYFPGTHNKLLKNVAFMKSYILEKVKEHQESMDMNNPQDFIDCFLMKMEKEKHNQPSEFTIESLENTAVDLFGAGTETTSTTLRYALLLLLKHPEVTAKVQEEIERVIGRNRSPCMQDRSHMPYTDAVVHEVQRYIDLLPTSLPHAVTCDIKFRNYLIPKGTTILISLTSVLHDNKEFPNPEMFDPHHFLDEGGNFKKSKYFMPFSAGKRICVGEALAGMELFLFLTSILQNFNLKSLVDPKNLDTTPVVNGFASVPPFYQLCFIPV
Cytochrome P450 2D6, sequence (P10635 whole entry): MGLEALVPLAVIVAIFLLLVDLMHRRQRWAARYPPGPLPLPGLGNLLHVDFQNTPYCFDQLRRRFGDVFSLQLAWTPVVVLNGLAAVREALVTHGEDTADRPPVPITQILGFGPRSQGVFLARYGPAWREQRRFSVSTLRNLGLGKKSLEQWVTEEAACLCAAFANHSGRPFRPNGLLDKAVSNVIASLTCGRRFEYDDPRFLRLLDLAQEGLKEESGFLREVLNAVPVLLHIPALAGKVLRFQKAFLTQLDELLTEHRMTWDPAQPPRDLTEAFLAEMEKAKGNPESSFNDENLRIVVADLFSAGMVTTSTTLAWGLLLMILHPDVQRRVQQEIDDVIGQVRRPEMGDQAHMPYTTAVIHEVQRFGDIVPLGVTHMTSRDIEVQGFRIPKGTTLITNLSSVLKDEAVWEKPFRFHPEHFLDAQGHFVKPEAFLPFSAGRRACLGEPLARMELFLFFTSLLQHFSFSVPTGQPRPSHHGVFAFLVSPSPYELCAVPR
Cytochrome P450 2C19, sequence (P33261 whole entry): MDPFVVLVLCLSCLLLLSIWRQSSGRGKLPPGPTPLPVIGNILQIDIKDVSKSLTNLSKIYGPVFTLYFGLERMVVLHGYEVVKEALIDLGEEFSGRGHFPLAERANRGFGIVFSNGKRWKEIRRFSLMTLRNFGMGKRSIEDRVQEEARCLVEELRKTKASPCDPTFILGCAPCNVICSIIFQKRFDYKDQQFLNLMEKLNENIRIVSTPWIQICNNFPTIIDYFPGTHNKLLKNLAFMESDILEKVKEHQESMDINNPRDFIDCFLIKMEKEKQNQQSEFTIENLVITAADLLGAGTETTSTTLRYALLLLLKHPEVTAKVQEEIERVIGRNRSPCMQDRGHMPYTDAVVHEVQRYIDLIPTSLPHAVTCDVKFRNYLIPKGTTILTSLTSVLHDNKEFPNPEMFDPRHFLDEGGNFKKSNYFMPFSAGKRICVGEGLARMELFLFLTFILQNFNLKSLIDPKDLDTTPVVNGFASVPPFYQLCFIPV
Voltage-gated inwardly rectifying potassium channel KCNH2, sequence (Q12809 whole entry): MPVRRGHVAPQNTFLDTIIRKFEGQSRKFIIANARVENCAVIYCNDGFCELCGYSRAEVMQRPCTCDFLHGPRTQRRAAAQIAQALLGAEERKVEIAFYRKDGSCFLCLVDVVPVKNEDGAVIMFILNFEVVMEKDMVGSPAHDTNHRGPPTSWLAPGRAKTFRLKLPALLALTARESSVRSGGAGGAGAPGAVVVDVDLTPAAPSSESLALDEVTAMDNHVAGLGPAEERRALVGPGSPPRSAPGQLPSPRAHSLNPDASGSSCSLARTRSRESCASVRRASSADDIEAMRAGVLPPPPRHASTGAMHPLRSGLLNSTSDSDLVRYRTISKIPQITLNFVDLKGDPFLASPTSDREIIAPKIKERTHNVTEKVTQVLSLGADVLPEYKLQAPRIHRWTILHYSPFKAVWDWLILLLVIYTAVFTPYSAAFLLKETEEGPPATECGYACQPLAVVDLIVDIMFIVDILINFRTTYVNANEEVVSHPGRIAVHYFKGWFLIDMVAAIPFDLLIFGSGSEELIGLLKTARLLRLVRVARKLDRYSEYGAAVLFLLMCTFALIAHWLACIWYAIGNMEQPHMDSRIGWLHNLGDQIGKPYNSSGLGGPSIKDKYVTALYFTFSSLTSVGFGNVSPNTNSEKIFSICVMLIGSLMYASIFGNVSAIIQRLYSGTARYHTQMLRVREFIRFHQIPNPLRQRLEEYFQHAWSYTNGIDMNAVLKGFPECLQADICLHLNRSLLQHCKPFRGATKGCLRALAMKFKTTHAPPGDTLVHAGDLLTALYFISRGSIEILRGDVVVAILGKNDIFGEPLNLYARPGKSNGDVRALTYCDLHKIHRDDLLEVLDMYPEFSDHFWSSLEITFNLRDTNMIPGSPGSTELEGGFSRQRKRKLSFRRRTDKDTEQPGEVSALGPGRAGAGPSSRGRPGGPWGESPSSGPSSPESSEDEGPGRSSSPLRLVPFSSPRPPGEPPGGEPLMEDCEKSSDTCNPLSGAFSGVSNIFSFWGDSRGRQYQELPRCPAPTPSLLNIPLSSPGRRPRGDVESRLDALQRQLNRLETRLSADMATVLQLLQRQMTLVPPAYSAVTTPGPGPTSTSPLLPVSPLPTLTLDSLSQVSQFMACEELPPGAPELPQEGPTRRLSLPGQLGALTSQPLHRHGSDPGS

## CCCCCCCCCCCCCCCCOP(=O)([O-])OCC[N+](C)(C)C [MILTEFOSINE]
Leishmania infantum [1]
  IC50: 2.65 µM

## O=c1c(O)c(-c2ccc(O)c(O)c2)oc2cc(O)ccc12 [FISETIN]
[2]
  inhibition: Active
Trypanosoma brucei [3]
  inhibition: 53%
Leishmania mexicana [4]
  inhibition: < 25%
Trypanosoma brucei [5]
  inhibition: < 25%
[6]
  inhibition: < 30%
786-0
  Activity: Non-Toxic
[7]
  inhibition: inactive
A549
  Activity: Non-Toxic
WI-38
  Activity: Non-Toxic

## O=c1c(O)c(-c2ccc(O)cc2)oc2cc(O)ccc12 [RESOKAEMPFEROL]
Trypanosoma brucei [3]
  inhibition: 33%
[8]
  CI: >1.5
Leishmania mexicana [4]
  inhibition: < 25%
Trypanosoma brucei [5]
  inhibition: < 25%
[6]
  inhibition: < 30%
786-0
  Activity: Non-Toxic
[9]
  EC50: 4.29 µM
Cytochrome P450 1A2 [10]
  inhibition (INH): Not Active
[7]
  inhibition: inactive
[11]
  Activity: Active
A549
  Activity: Non-Toxic
[12]
  CI: >1.5
[13]
  MNTC at 72 h: 20 µM
WI-38
  Activity: Non-Toxic
In vitro
  selectivity ratio: 4

## C[C@@H]1O[C@@H](OC[C@H]2O[C@@H](Oc3c(-c4ccc(O)c(O)c4)oc4cc(O)cc(O)c4c3=O)[C@H](O)[C@@H](O)[C@@H]2O)[C@H](O)[C@H](O)[C@H]1O
Trypanosoma brucei [14]
  inhibition: inactive
[9]
  IC50: < 30 µM

## COc1ccc(-c2oc3ccc(OC)cc3c(=O)c2O)cc1
[15]
  CI: 3.1
786-0
  Activity: Non-Toxic
THP-1
  Activity: Non-Toxic
CYP1A2
  inhibition at 0.5 h, 10 µM: 72%
[11]
  Activity: Active
A549
  Activity: Non-Toxic
[12]
  CI: >1.5
[13]
  MNTC at 72 h: 20 µM
WI-38
  Activity: Non-Toxic
In vitro
  selectivity ratio: 1

## O=c1c(O)c(-c2cccc(O)c2)oc2ccc(O)cc12
Trypanosoma brucei [3]
  inhibition: 96%
Leishmania mexicana [16]
  inhibition: 86%
[8]
  CI: >1
Leishmania mexicana [4]
  inhibition: 42 to 43%
Cytochrome P450 1A2 [17]
  IC50: 6.1 µM
Trypanosoma brucei [5]
  inhibition: 42 to 43%
[18]
  half-life: 7.6 min
[19]
  Drug uptake: Not Active
[20]
  IC50: 4.3 µM
[21]
  MNTC at 72 h: > 100 µM
Cytochrome P450 2C9
  IC50: > 10 µM
786-0
  Activity: Non-Toxic
Cytochrome P450 2D6
  IC50: > 10 µM
[22]
  EC50: 3.27 µM
[9]
  EC50: 7.56 µM
Cytochrome P450 1A2 [10]
  inhibition (INH): Not Active
[7]
  inhibition: inactive
Cytochrome P450 3A4
  IC50: > 10 µM
[11]
  Activity: Active
[23]
  IC50: 99.3 µM
[24]
  MNTC at 72 h: > 100 µM
A549
  Activity: Non-Toxic
[13]
  CC50 at 72 h: 53 µM
WI-38
  Activity: Non-Toxic
Cytochrome P450 2C19
  IC50: > 10 µM
[25]
  Drug uptake: Not Active
[26]
  EC50: 5.7 µM
[27]
  solubility: Soluble
Dihydrofolate reductase
  IC50: 50 µM
[28]
  Drug uptake: Not Active
In vitro
  selectivity ratio: 7
[29]
  Drug uptake: Not Active

## COc1ccc2c(=O)c(O)c(-c3cc(OC)c(OC)c(OC)c3)oc2c1
Trypanosoma brucei [3]
  inhibition: inactive
786-0
  Activity: Non-Toxic
Leishmania infantum [30]
  Activity: 35%
Cytochrome P450 1A2 [10]
  inhibition (INH): Not Active
A549
  Activity: Non-Toxic
[13]
  MNTC at 72 h: 20 µM
WI-38
  Activity: Non-Toxic
In vitro
  selectivity ratio: 17

## CC1CS(=O)(=O)CCN1/N=C/c1ccc([N+](=O)[O-])o1 (stereo unspecified) [NIFURTIMOX]
Trypanosoma cruzi
  IC50: 2.2 µM

## O=c1c(O)c(-c2cc(O)c(O)c(O)c2)oc2cc(O)ccc12 [ROBINETIN]
[2]
  inhibition: Active
Trypanosoma brucei [3]
  inhibition: 85%
Leishmania mexicana [4]
  inhibition: < 25%
Trypanosoma brucei [5]
  inhibition: < 25%
[6]
  inhibition: < 30%
786-0
  Activity: Non-Toxic
Leishmania infantum [30]
  Activity: 10%
[9]
  EC50: 18 µM
[7]
  inhibition: inactive
A549
  Activity: Non-Toxic
[13]
  MNTC at 72 h: 100 µM
WI-38
  Activity: Non-Toxic
In vitro
  selectivity ratio: 5
